Structures can show the parent of a compound that is named as a salt. Where two headings read alike, the source gives them in different places. Where only a bound is given, the exact number is not on record here.

Data set [1] in a line: Analyte stability during storage in citrate or EDTA treated feline plasma. Format: physicochemical. The settings on record: for Time stable at room temperature: EDTA treated feline plasma; for Deviation from nominal concentration (%): EDTA treated plasma, spike CAM-D 100, clopidogrel 38.3, acid 500 ng/mL; for Time stable at −80°C: citrate treated feline plasma; for Time stable at room temperature (abstract) / Time stable at −80°C (abstract): feline plasma.

The conditions of data set [2]: in vivo, po.
Data set [3] has as its system feline cardiogenic thromboembolism. The settings on record: cats; cited from earlier work.
Data set [4] in a line: in vivo. The settings on record: po, 18.75 mg.
The conditions of data set [5]: humans; cited from earlier work.
The conditions of data set [6]: cited from earlier work.
For data set [7], the system named is ADP-induced platelet aggregation. As to conditions: cited from earlier work.

With `O=C(O)[C@H](c1ccccc1Cl)N1CCc2sccc2C1` [Clopidogrel carboxylic acid, clopidogrel carboxylic acid], in data set [1], the “Time stable at room temperature” value is “at least 1 week”, the “Time stable at −80°C” value is “at least 9 months”, the “Time stable at room temperature (abstract)” value was determined as 1 week and the “Time stable at −80°C (abstract)” value is 9 months. Further, the “Deviation from nominal concentration (%)” value in data set [1] (4°C, 6 h) is recorded as −6%. The “Deviation from nominal concentration (%)” value in data set [1] (RT, 1 wk) is on record as −1%. Moreover, in data set [1] (RT, 24 h), the “Deviation from nominal concentration (%)” value is listed as −2%. Also, in data set [1] (RT, 48 h), the “Deviation from nominal concentration (%)” value is on record as −10%. In addition, the “Deviation from nominal concentration (%)” value in data set [1] (RT, 72 h) is on record as 1%. Besides, in data set [2], the “AUC that was extrapolated” value is 15–20%. In addition, in data set [2] (18.75 mg), the “Cmax and AUC values compared with clopidogrel and CAM-D” value is on record as “over 100 fold”; the “Cmax values (range of both cats)” value is given as 2,900–3,300 ng/mL; the “Elimination half-life compared with clopidogrel and CAM-D” value is reported as “about 2 times”; the “Time post administration at which Cmax was reached (both cats)” value was in the range of 1.5 to 2 h.
On to `COC(=O)C(c1ccccc1Cl)N1CCC2SC(=O)C=C2C1.Cl` (stereo not shown) [2-oxo-clopidogrel, 2-oxo-clopidogrel hydrochloride], for which the “Stability in feline plasma (in words)” value in data set [1] (all storage temperatures tested, EDTA and citrate treated plasma) is “unstable”. In data set [1] (all storage temperatures tested, EDTA treated and citrate treated plasma, data not shown), the “Decrease from nominal concentration within 6 hours” value is given as more than 25%.
As for `COC(=O)[C@H](c1ccccc1Cl)N1CCc2sccc2C1` [Clopidogrel, S-(+)-clopidogrel hydrogen sulfate, reference compound], in data set [1], the “Time stable at room temperature” value is reported as “at least 1 week”, the “Time stable at −80°C” value is on record as “at least 9 months”, the “Time stable at room temperature (abstract)” value was determined as 1 week and the “Time stable at −80°C (abstract)” value worked out at 9 months. Also, in data set [1] (4°C, 6 h), the “Deviation from nominal concentration (%)” value was −7%. Besides, the “Deviation from nominal concentration (%)” value in data set [1] (RT, 1 wk) turned out to be 6%. In data set [1] (RT, 24 h), the “Deviation from nominal concentration (%)” value was −2%. For the same molecule, the “Deviation from nominal concentration (%)” value in data set [1] (RT, 48 h) was −5%. For the same molecule, the “Deviation from nominal concentration (%)” value in data set [1] (RT, 72 h) is given as −1%. In addition, the “Prevention of feline cardiogenic thromboembolism” value in data set [3] is on record as “superior to aspirin”. The molecule also came in with an AUC(0-t) in data set [4] (AUClast (0 to 24hrs)) of 374 ng·h/mL. In addition, the Cmax in data set [4] (Cmax) is 134 ng/mL. This molecule showed a half-life in data set [4] (t1/2 (elimination half-life)) of 5.4 h. The “AUC that was extrapolated” value in data set [2] (cat) is listed as less than 2%. Moreover, in data set [2] (18.75 mg), the “AUClast (0 to 24hrs)” value amounted to 225 ng·h/mL, the Cmax worked out at 144 ng/mL and the “t1/2 (elimination half-life)” value worked out at 5.2 h. Besides, the “Proportion metabolized in the liver to inactive clopidogrel carboxylic acid” value in data set [5] is listed as 85%. In addition, the Cmax in humans in data set [6] (healthy humans / people) is 20 ng/mL. For the same molecule, in data set [6] (post administration), the Tmax in people entry is “around 1 hour”.
With `COC(=O)C(c1ccccc1Cl)N1CCC(S)C(=CC(=O)O)C1` (stereo not shown) [H4], the “Antiplatelet activity relative to H2” value in data set [7] is “about twice the activity of H2”.

In general, AUC(0-t) refers to the area under the concentration-time curve up to a stated or last time point. A low value points to low exposure. Usually Cmax stands for the highest concentration seen after dosing. For orientation: half-life means how long it takes for the measured level to halve. Higher therefore signals slow decline.
